Literature values, collected in patent US20110282046A1, “PROCESS FOR PREPARATION OF CIS-NUCLEOSIDE DERIVATIVE” (priority 2009, published 2011).
Like-named read-outs stand apart in the source and are kept apart here.

Settings: for volume of water in which 1 g dissolves: Merck Index Entry no. 8869

Row | SMILES | volume of water in which 1 g dissolves (boiling water) | volume of water in which 1 g dissolves (cold water) | solubility in water (water, Merck Index Entry no. 8332)
1 | O=C(O)CCC(=O)O [Succinic acid] | 1 mL | 13 mL | 
2 | O=C(O)c1ccccc1O [salicylic acid] |  |  | 0.20 g in 100 ml water
